Results as given in patent US11419902B2, “Compositions comprising bacterial strains” (4D Pharma Research Limited, priority 2018, dated 2022).

Experiments:
SH-SY5Y cells = assay type: cell-based
Method: SH-SY5Y cells were plated at a seeding density of 10,000 cells/well, 24 hrs later cells were treated in 100 ul of 1% FBS growth media with different concentrations (express as percentage v/v) of cell-free bacterial supernatants from stationary phase cultures for 22 h. Thereafter 10 μl of MTT solution was added and cells were incubated in CO2 incubator for 4 h, at the end of this time 100 μl of isopropanol with 0.04 HCL was added to each well. The absorbance was measured at 560 nm wavelength and a reference wavelength of 655 nm. MTT assay kit was purchased from Merck Millipore (Cat n. CT01).

IL-6, CD11b, TLR4 = experiment: Gene expression in the brain of BALB/c mice (qPCR); assay type: in vivo; conditions: vs vehicle control
Method: BALB/c mice were administered live biotherapeutic and tissues were isolated for analysis of gene expression using qPCR.

IL-8 [1] = experiment: IL-8 secretion by differentiated HT29-mtx cells; assay type: cell-based; conditions: 24 h, vs untreated and YCFA+-treated cells
Description: The ability of MRx0029 to cause any intestinal barrier dysfunction was investigated. HT29-mtx epithelial, mucin-producing cell monolayers were used as an in vitro model to evaluate gut barrier disruption and immune stimulation following treatment with MRx0029.

colon = experiment: Intestinal permeability assay (Ussing chambers); assay type: in vivo; conditions: colon of mice fed with MRx0029
Method: Animals were allowed to habituate to their holding room for one week after arrival into the animal unit. They receive oral gavage (200 μL dose) of live biotherapeutics at a dose of 1×10^9 CFU for 6 consecutive days between 15:00 and 17:00. On day 7, the animals are decapitated, and tissues are harvested for experimentation. Animals were sacrificed in a random fashion regarding treatment and testing condition; sampling occurred between 9.00 a.m. and 2:30 p.m. Trunk blood was collected in potassium EDTA (Ethylene Diamine Tetra Acetic Acid) tubes and spun for 15 min at 4000 g. Plasma was isolated and stored at −80° C. for further analysis. The brain was quickly excised, dissected and each brain region was snap-frozen on dry ice and stored at −80° C. for further analysis. Spleen was removed, collected in 5 mL RPMI media (with L-glutamine and sodium bicarbonate, R8758 Sigma+10% FBS (F7524, Sigma)+1% Pen/Strep (P4333, Sigma)) and processed immediately after culls for ex-vivo immune stimulation. Intestinal tissue (2 3 cm segments of ileum and colon closest to the caecum were excised, and the furthest 1 cm 2 cm of tissue from the caecum were used) were mounted into the Ussing chambers for intestinal permeability assay. The caecum was removed, weighted and stored at −80° C. for SCFAs analysis.

[2] = test system: ERK signalling (phosphorylated ERK1 and 2/total ERK); experiment: ERK signalling in SKMEL28 cell line (Western blot); assay type: cell-based; conditions: SKMEL28, relative to the negative control (YFCA+)
Method: Following 24 h treatment with the appropriate drugs either in presence of 10% bacterial supernatant or absence (YCFA+), protein extracts were obtained by lysing cells in RIPA buffer (R0278; Sigma Aldrich) supplemented with protease inhibitors (cOmplete Protease Inhibitor Cocktail Tablets; Roche, Switzerland) and 1 mM/L sodium orthovanadate, 0.5 mM/L PMSF. Protein quantification was done by the BCA protein assay. Equal amounts of total protein (20 μg/lane) were then separated by SDS-PAGE on 4-15% gradient gel (BioRad) and transferred to polyvinylidene difluoride (PVDF) membranes (Thermo Fisher Scientific, Loughborough). […]
Proteins of interest were detected with the appropriate HRP-conjugated secondary antibody (1:10,000, Thermo Fisher Scientific, Loughborough), developed with the ECL Western blotting Super Signal PicoPlus substrate (34577; Thermo Fisher Scientific, Loughborough), and visualised in Chemidoc XRS Imager (BioRad).
The effects of the following treatments were assessed on the SKMEL28 melanoma cell line (V600E oncogenic mutation in BRAF): (1) MRx0029; (2) Vemurafenib (VEMU) in YCFA+ medium; (3) VEMU and MRx0029; (4) Azacytidine-C (Aza-c) in YCFA+ medium; (5) Aza-c and MRX0029; (6) VEMU, Aza-c and MRx0029.

IL-8 [3] = experiment: IL-8 secretion in U373 cells treated with SCFAs or supernatant fractions (ELISA); assay type: cell-based, Human; conditions: U373 cells, with or without 1 μg/ml LPS, 24 h
Method: Human glioblastoma astrocytoma cell line (U373), were maintained in 25 ml MEME 4.5 g/L D-glucose supplemented with 10% heat-inactivated FBS, 4 mM L-Glutamine, 100 U/ml penicillin, 100 μg/ml streptomycin and 5 μg/ml plasmocin, 1% Non-Essential Amino Acids, 1% Sodium Pyruvate (referred to as full growth media).
U373 cells were prepared as described above. Cells were pre-treated for 1 h with 1 μg/ml LPS indicated above and incubated at 37° C. and 5% CO2. After 1 h pre-incubation, cells were removed from CO2 incubator and treated with increasing concentration of fresh prepared Sodium Butyrate (SB), Sodium Valerate (SV) and Hexanoic Acid (HA).
U373 cells were prepared as described above. Cells were pre-treated for 1 h with 1 μg/ml LPS as indicated above. Afterwards, cells were removed from CO2 incubator and treated with 100 μl of the different fractions. Fractions from media were used as controls. Cell-free supernatants were collected 24 h after treatment and analysed by ELISA for IL-8 secretion (as outlined above).

Substance: Megasphaera massiliensis MRx0029
- reduction of cell viability (SH-SY5Y cells): approximately 70%
- cell viability (SH-SY5Y cells; undifferentiated neuroblastoma cells, MRx0029 at 5% or 10%): significant, dose-dependent decrease in cell viability
- TLR4 expression in the amygdala (IL-6, CD11b, TLR4): significantly increase TLR4 expression
- secretion of IL-8 (IL-8 [1]): even lower secretion of IL-8
- permeability function in the colon (colon): decrease the permeability function
- ERK signalling [2]: reduced ERK signalling
- IL-8 secretion in the presence and absence of LPS (IL-8 [3]): induced IL-8 secretion
